Assays:
Test in all cases: selective drug sensitivity score (sDSS, relative to normal bone marrow) (sDSS (score)); higher = more potent and effective on the cell line relative to normal bone marrow cells
Settings in all cases: 72 h
380 = test system: 380
697 = test system: 697
CCRF-CEM = test system: CCRF-CEM
CCRF-HSB2 = test system: CCRF-HSB2
COG-LL-332h = test system: COG-LL-332h
COG-LL-394h = test system: COG-LL-394h
COG-LL-402h = test system: COG-LL-402h
HAL-01 = test system: HAL-01
KASUMI-10 = test system: KASUMI-10
KASUMI-2 = test system: KASUMI-2
KASUMI-9 = test system: KASUMI-9
KOPN-8 = test system: KOPN-8
MHH-CALL-2 = test system: MHH-CALL-2
MHH-CALL-3 = test system: MHH-CALL-3
MHH-CALL-4 = test system: MHH-CALL-4
MN-60 = test system: MN-60
NALL-1 = test system: NALL-1
NALM-16 = test system: NALM-16
P30-OHKUBO = test system: P30-OHKUBO
PF-382 = test system: PF-382
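Further: ALL cell lines in 384-well plates, five doses spanning 10,000-fold, each plate scaled between vehicle and 100 µmol/L benzalkonium chloride controls, sDSS an adapted area-under-curve metric.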

Row | SMILES | selective drug sensitivity score 380 | selective drug sensitivity score 697 | selective drug sensitivity score (CCRF-CEM) | selective drug sensitivity score (CCRF-HSB2) | selective drug sensitivity score (COG-LL-332h) | selective drug sensitivity score (COG-LL-394h) | selective drug sensitivity score (COG-LL-402h) | selective drug sensitivity score (HAL-01) | selective drug sensitivity score (KASUMI-10) | selective drug sensitivity score (KASUMI-2) | selective drug sensitivity score (KASUMI-9) | selective drug sensitivity score (KOPN-8) | selective drug sensitivity score (MHH-CALL-2) | selective drug sensitivity score (MHH-CALL-3) | selective drug sensitivity score (MHH-CALL-4) | selective drug sensitivity score (MN-60) | selective drug sensitivity score (NALL-1) | selective drug sensitivity score (NALM-16) | selective drug sensitivity score (P30-OHKUBO) | selective drug sensitivity score (PF-382)
1 | CC[C@]1(O)C[C@H]2CN(CCc3c([nH]c4ccccc34)[C@@](C(=O)OC)(c3cc4c(cc3OC)N(C=O)[C@H]3[C@@](O)(C(=O)OC)[C@H](OC(C)=O)[C@]5(CC)C=CCN6CC[C@]43[C@@H]65)C2)C1 [Vincristine] (top concentration 1000 nM) | 14.9 | 17 | 4.42 | 1.62 | 4.22 | 3.92 | 13.7 | -6.38 | 4.72 | 8.92 | 15.9 | 15.8 | 5.52 | 4.22 | -2.28 | -1.58 | -0.88 | 12.3 | 17.4 | -0.18
2 | FC(F)c1nc2ccccc2n1-c1nc(N2CCOCC2)nc(N2CCOCC2)n1 [ZSTK474] (top concentration 10000 nM) | 13.7 | 8.46 | 9.36 | 3.76 | 3.86 | 0.86 | 13.6 | 18.5 | 0.96 | 6.76 | 9.86 | 11.9 | 11.4 | 10.3 | 7.46 | 0.36 | 1.96 | 0.56 | 13.3 | 5.66

From the supplement of paper PMC8967900
